Like-named read-outs stand apart in the source and are kept apart here.
What was measured:
[1] = molecular target: BRD4 (BD1+BD2) bromodomain (Homo sapiens (Human), UniProt O60885); assay: BRD4 binding inhibition (AlphaScreen, GST-BRD4 vs tetraacetylated histone H4 peptide)
Outline: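 GST-BRD4 (BD1+BD2) and biotinylated tetraacetyl-histone H4 peptide, each at 100 nM in HEPES pH 7.4 buffer with BSA and DTT, were combined with compound. Glutathione acceptor and streptavidin donor beads were added, then incubated 30 min at room temperature in the dark. Read-out was AlphaScreen signal.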

[2] = tested on: acute myelogenous leukemia cells (MV-4-11 cells); assay: Cytotoxicity to acute myelogenous leukemia cells (MV-4-11 cells), CCK-8
[3] = Homo sapiens, MV4-11, 72 h, read-out: IC50, cytotoxicity against acute myelogenous leukemia cells
[4] = Homo sapiens, MV4-11, 72 h, read-out: MV-4-11 Cytotoxicity IC50
[5] = GST-BRD4 (BD1+BD2) / biotinylated acetyl-histone H4 (Lys5,8,12,16) peptide, read-out: IC50, BRD4 binding inhibition
[6] = GST-BRD4 (BD1+BD2) vs biotinylated acetyl-histone H4 peptide, AlphaScreen, read-out: BRD4 IC50

Compound	IC50 [1, 5]	IC50 [1, 6]	IC50 ([1]; IC50, BRD4 binding inhibition, GST-BRD4 (BD1+BD2) / biotinylated acetyl-histone H4 (Lys5,8,12,16) peptide)	IC50 [2, 3]	IC50 [2, 4]	IC50 ([2]; read-out: IC50, cytotoxicity against acute myelogenous leukemia cells, MV-4-11 cells, 72 hours, CCK-8)	IC50 ([2]; read-out: MV-4-11 Cytotoxicity IC50, MV-4-11 cells, 72 hours, CCK-8)
COCCOc1ccc2c(c1)nc(NCCCCNC(=O)Oc1ccccc1)c1nnc(C)n12 [Example 372, {4-[7-(2-methoxy-ethoxy)-1-methyl-[1,2,4]triazolo[4,3-a]quinoxaline-4-ylamino]-butyl}-carbamic acid phenylester]	–	–	≤ 10 nM	≤ 200 nM	180 nM	–	–
COc1ccc2c(nc(NCCCCNC(=O)Cc3cccs3)c3nnc(C)n32)c1Cl [Example 463, N-[4-(6-chloro-7-methoxy-1-methyl-[1,2,4]triazolo[4,3-a]quinoxaline-4-ylamino)-butyl]-2-thiophene-2-yl-acetamide]	≤ 50 nM	–	–	≤ 200 nM	100 nM	–	–
CCc1nnc2c(NCCCCNC(=O)OC(C)C)nc3cc(OC)ccc3n12 [Example 623, [4-(7-methoxy-1-ethyl-[1,2,4]triazolo[4,3-a]quinoxaline-4-ylamino)-butyl]-carbamic acid isopropylester]	≤ 50 nM	5 nM	–	–	400 nM	–	–
COc1ccc2c(c1)nc(NCCCCNC(=O)[C@@H](NS(C)(=O)=O)C(C)C)c1nnc(C)n12 [Example 327, 2-(S)-methanesulfonylamino-N-[4-(7-methoxy-1-methyl-[1,2,4]triazolo[4,3-a]quinoxaline-4-ylamino)-butyl]-3-methyl-butyramide]	≤ 50 nM	18 nM	–	≤ 200 nM	140 nM	–	–
Cc1nnc2c(NCCCCNC(=O)c3ccccc3Cl)nc3cc(OC(C)C)ccc3n12 [Example 454, 2-chloro-N-[4-(7-isopropoxy-1-methyl-[1,2,4]triazolo[4,3-a]quinoxaline-4-ylamino)-butyl]-benzamide]	≤ 50 nM	11 nM	–	≤ 200 nM	80 nM	–	–
COc1cc(C)c2nc(NCCCCNC(=O)OC(C)(C)C)c3nnc(C)n3c2c1 [Example 158, [4-(8-methoxy-1,6-dimethyl-[1,2,4]triazolo[4,3-a]quinoxaline-4-ylamino)-butyl]-carbamic acid-tert-butylester]	≤ 50 nM	18 nM	–	–	610 nM	–	–
COc1cc2nc(NCCCCNC(=O)CC(C)C)c3nnc(C)n3c2cc1NC(=O)Cc1ccccc1 [Example 564]	≤ 10 nM	9 nM	–	–	610 nM	–	–
Cc1nnc2c(NCCCCNC(=O)OCC(C)C)nc3cc(-n4ccnc4)ccc3n12 [Example 493]	≤ 10 nM	5 nM	–	≤ 200 nM	48 nM	–	–
COCCOc1ccc2c(c1)nc(NCCCCNC(=O)c1cccc(Cl)c1Cl)c1nnc(C)n12 [Example 413, 2,3-dichloro-N-{4-[7-(2-methoxy-ethoxy)-1-methyl-[1,2,4]triazolo[4,3-a]quinoxaline-4-ylamino]-butyl}-benzamide]	≤ 10 nM	–	–	–	190 nM	–	–
Cc1nnc2c(NCCCCNC(=O)C(C)(C)C)nc3cc(OCCN4CCOCC4)ccc3n12 [Example 433, 2,2-dimethyl-N-{4-[1-methyl-7-(2-morpholine-4-yl-ethoxy)-[1,2,4]triazolo[4,3-a]quinoxaline-4-ylamino]-butyl}-propionamide]	–	61 nM	–	–	340 nM	–	–
COc1ccc2c(c1)nc(NCCCCNC(=O)CCC1CCCC1)c1nnc(C)n12 [Example 309, 3-cyclopentyl-N-[4-(7-methoxy-1-methyl-[1,2,4]triazolo[4,3-a]quinoxaline-4-ylamino)-butyl]-propionamide]	≤ 10 nM	–	–	≤ 200 nM	110 nM	–	–
benzoic acid 1-methyl-4-[4-(3-methyl-butylamino)-butylamino]-[1,2,4]triazolo[4,3-a]quinoxaline-7-yl ester [Example 350]	≤ 50 nM	33 nM	–	–	–	≤ 200 nM	71 nM
COc1ccc2c(c1)nc(NCCCCNC(=O)NC(C)C)c1nnc(C)n12 [Example 330, 1-isopropyl-3-[4-(7-methoxy-1-methyl-[1,2,4]triazolo[4,3-a]quinoxaline-4-ylamino)-butyl]-urea]	≤ 50 nM	29 nM	–	≤ 200 nM	140 nM	–	–
Cc1nnc2c(NCCCCNC(=O)CC(C)C)nc3cc(C(=O)Nc4ccccc4N)ccc3n12 [Example 215, 1-methyl-4-[4-(3-methyl-butyrylamino)-butylamino]-[1,2,4]triazolo[4,3-a]quinoxaline-7-carboxylic acid-(2-amino-phenyl)-amide]	≤ 50 nM	22 nM	–	–	276 nM	–	–
Cc1nnc2c(NCCCCNC(=O)c3ccccc3Cl)nc3cc(OC(F)(F)F)ccc3n12 [Example 274, 2-chloro-N-[4-(1-methyl-7-trifluoromethoxy-[1,2,4]triazolo[4,3-a]quinoxaline-4-ylamino)-butyl]-benzamide]	≤ 50 nM	27 nM	–	–	280 nM	–	–
CCC(C)C(=O)NCCCCNc1nc2cc(OCCOC)ccc2n2c(C)nnc12 (centres unmarked) [Example 380, N-{4-[7-(2-methoxy-ethoxy)-1-methyl-[1,2,4]triazolo[4,3-a]quinoxaline-4-ylamino]-butyl}-2-methyl-butyramide]	≤ 50 nM	13 nM	–	–	610 nM	–	–
COc1ccc2c(c1)nc(NCCCCNC(=O)C(C)C)c1nnc(C)n12 [Example 281, N-[4-(7-methoxy-1-methyl-[1,2,4]triazolo[4,3-a]quinoxaline-4-ylamino)-butyl]-isobutyramide]	≤ 10 nM	0.4 nM	–	≤ 200 nM	158 nM	–	–
COc1cc2nc(NCCCCNC(=O)c3ccccc3)c3nnc(C)n3c2cc1OC [Example 95, N-[4-(7,8-dimethoxy-1-methyl-[1,2,4]triazolo[4,3-a]quinoxaline-4-ylamino)-butyl]-benzamide]	≤ 50 nM	36 nM	–	–	590 nM	–	–
CCC(F)(F)C(=O)NCCCCNc1nc2cc(OCCOC)ccc2n2c(C)nnc12 [Example 391, 2,2-difluoro-N-{4-[7-(2-methoxy-ethoxy)-1-methyl-[1,2,4]triazolo[4,3-a]quinoxaline-4-ylamino]-butyl}-butyramide]	≤ 10 nM	5 nM	–	≤ 200 nM	200 nM	–	–
COc1cc2nc(NCCCCNC(=O)[C@@H](O)C(C)C)c3nnc(C)n3c2cc1C(F)(F)F [Example 479, 2-(S)-hydroxy-N-[4-(7-methoxy-1-methyl-8-trifluoromethyl-[1,2,4]triazolo[4,3-a]quinoxaline-4-ylamino)-butyl]-3-methyl-butyramide]	≤ 10 nM	5 nM	–	–	240 nM	–	–

The next lines start with results.

IC50 [1, 5]	IC50 [1, 6]	Compound	IC50 ([1]; IC50, BRD4 binding inhibition, GST-BRD4 (BD1+BD2) / biotinylated acetyl-histone H4 (Lys5,8,12,16) peptide)	IC50 [2, 3]	IC50 [2, 4]	IC50 ([2]; read-out: IC50, cytotoxicity against acute myelogenous leukemia cells, MV-4-11 cells, 72 hours, CCK-8)	IC50 ([2]; read-out: MV-4-11 Cytotoxicity IC50, MV-4-11 cells, 72 hours, CCK-8)
≤ 50 nM	16 nM	COc1cc2c(cc1C)nc(NCCCCNC(=O)[C@@H](O)C(C)C)c1nnc(C)n12 [Example 153, 2-(S)-hydroxy-N-[4-(8-methoxy-1,7-dimethyl-[1,2,4]triazolo[4,3-a]quinoxaline-4-ylamino)-butyl]-3-methyl-butyramide]	–	–	460 nM	–	–
≤ 10 nM	8 nM	COc1ccc2c(c1)nc(NCCCCNC(=O)[C@@H](Br)C(C)C)c1nnc(C)n12 [Example 302, 2-(S)-bromo-N-[4-(7-methoxy-1-methyl-[1,2,4]triazolo[4,3-a]quinoxaline-4-ylamino)-butyl]-3-methyl-butyramide]	–	≤ 200 nM	66 nM	–	–
≤ 50 nM	15 nM	Cc1nnc2c(NCCCCNC(=O)OC(C)C)nc3cc(N4CCOCC4)ccc3n12 [Example 506, [4-(1-methyl-7-morpholine-4-yl-[1,2,4]triazolo[4,3-a]quinoxaline-4-ylamino)-butyl]-carbamic acid isopropylester]	–	–	340 nM	–	–
≤ 10 nM	2 nM	COc1cc2nc(NCCCCNC(=O)[C@@H](O)C(C)C)c3nnc(C)n3c2cc1OC [Example 83, N-[4-(7,8-dimethoxy-1-methyl-[1,2,4]triazolo[4,3-a]quinoxaline-4-ylamino)-butyl]-2-(S)-hydroxy-3-methyl-butyramide]	–	–	211 nM	–	–
≤ 50 nM	13 nM	COCCOc1ccc2c(c1)nc(NCCCCNC(=O)CC(C)C)c1nnc(C)n12 [Example 365, N-{4-[7-(2-methoxy-ethoxy)-1-methyl-[1,2,4]triazolo[4,3-a]quinoxaline-4-ylamino]-butyl}-3-methyl-butyramide]	–	≤ 200 nM	60 nM	–	–
–	52 nM	COc1cc2nc(NCCCCNC(=O)CC(C)C)c3nnc(C)n3c2cc1OCCN1CCOCC1 [Example 576, N-{4-[7-methoxy-1-methyl-8-(2-morpholine-4-yl-ethoxy)-[1,2,4]triazolo[4,3-a]quinoxaline-4-ylamino]-butyl}-3-methyl butyramide]	–	≤ 200 nM	86 nM	–	–
≤ 10 nM	7 nM	CSc1ccc2c(c1)nc(NCCCCNC(=O)[C@@H](O)C(C)C)c1nnc(C)n12 [Example 358, 2-(S)-hydroxy-3-methyl-N-[4-(1-methyl-7-methylsulfanyl-[1,2,4]triazolo[4,3-a]quinoxaline-4-ylamino)-butyl]-butyramide]	–	–	160 nM	–	–
≤ 50 nM	31 nM	Cc1nnc2c(NCCCCNC(=O)[C@@H](F)C(C)C)nc3cc(N4CCc5sccc5C4)ccc3n12 [Example 529, N-{4-[7-(6,7-dihydro-4H-thiano[3,2-c]pyridine-5-yl)-1-methyl-[1,2,4]triazolo[4,3-a]quinoxaline-4-ylamino]-butyl}-2-(S)-fluoro-3-methyl-butyramide]	–	≤ 200 nM	107 nM	–	–
